# Measurements: EP0118120A2, “1,4-Dihydropyridine compound” (priority 1983, dated 1984)
# Tests used:
# [1] = system: liver disorder induced by carbon tetrachloride; test: Effect on liver disorder induced by carbon tetrachloride in rats, serum GOT, GPT, AlP, bilirubin (Example 26); format: in vivo, SLC-Wistar male rats
# Protocol: (§1) Effect of the compounds according to the present invention on liver disorder induced by carbon tetrachloride
# (§2) The effects of the sample compounds to be tested on hepatic disorder were evaluated by determining the levels of GOT, GPT, AlP, and bilirubin, which are known as an indicator of hepatic disorder, in serum, after administering carbon tetrachloride and the sample compounds to SLC-Wistar male rats (9 weeks old and body weight of 210 to 250 g in Tables 1, 3, and 4, and 10 weeks old and body weight of 230 to 260 g in Table 2) as follows.
# (§3) Five rats were used in each test group. The sample compound (i.e., each compound listed below) was suspended at a concentration of 40 mg/ml in a 0.1% aqueous solution of Tween-80 (i.e., nonionic surfactant available from Atlas Powder Co., Ltd.). The resultant suspension was orally administered at a dose of 200 mg/kg each at 25 hours and 1 hour before the administration of carbon tetrachloride, except for the control group. For the control group to which only carbon tetrachloride was administered in the evaluation test, a 0.1% aqueous Tween-80 was orally administered at a dose of 5 ml/kg in the same manner.
# (§4) Carbon tetrachloride was intraperiotoneally administered as a 10% olive oil solution at a dose of 5 ml/kg (0.5 ml/kg in terms of CC14) one hour after the final administration of the sample compound. For the control (normal) group, olive oil was intraperitoneally administered in the same manner at a dose of 5 ml/kg.
# (§5) Blood samples were collected from the carotid artery under pentobarbital anesthesia, 24 hours after the administration of carbon tetrachloride. The rats were fasted for 18 to 22 hours before collecting the blood samples.
# (§6) The determination of GOT and GPT in serum was carried out according to a UV method, the determination of AlP was carried cut according to Bessy-Lowry method, and the determination of bilirubin was carried out according to a diazo method.
# [2] = Acute toxicity, oral LD50 in rats (Example 28); conditions: rat, in vivo, male rats 5 weeks old, 130 to 150 g, observed for one week
# Text: Acute toxicity of the compounds according to the present invention
# [3] = system: liver disorder induced by carbon tetrachloride; test: Effect on liver disorder induced by carbon tetrachloride in rats, repeat with 8 weeks old rats (Example 27); format: in vivo, SLC-Wistar male rats; conditions: serum 24 hours after CCl4, 200 mg/kg orally x2, rats 8 weeks old
# Protocol: as §2, §3, §4, §5, §6, §1
# The evaluation tests of Example 26 were repeated except that SLC-Wistar male rats (8 weeks old and body weight of 170 to 210 g) were used.
# [4] = Table 1, serum 24 hours after CCl4 0.5 ml/kg i.p., compound 200 mg/kg orally 25 hours and 1 hour before CCl4, rats 9 weeks old, CCl4 only 17327 ± 2336, normal 76 ± 1
# [5] = Table 1, serum 24 hours after CCl4, 200 mg/kg orally x2, rats 9 weeks old, CCl4 only 0.62 ± 0.30, normal 0.10 ± 0.00
# [6] = Table 1, serum 24 hours after CCl4, 200 mg/kg orally x2, rats 9 weeks old, CCl4 only 35.5 ± 2.5, normal 23.6 ± 0.4
# [7] = Table 1, serum 24 hours after CCl4, 200 mg/kg orally x2, rats 9 weeks old, CCl4 only 10496 ± 1221, normal 31 ± 2
# [8] = Table 4, serum 24 hours after CCl4, 200 mg/kg orally x2, rats 9 weeks old, CCl4 only 0.38 ± 0.04, normal 0.10 ± 0.00
# [9] = Table 4, serum 24 hours after CCl4, 200 mg/kg orally x2, rats 9 weeks old, CCl4 only 35.0 ± 2.0, normal 24.4 ± 0.7
# [10] = Table 4, serum 24 hours after CCl4, 200 mg/kg orally x2, rats 9 weeks old, CCl4 only 10523 ± 2313, normal 31 ± 3
# [11] = Table 4, serum 24 hours after CCl4, 200 mg/kg orally x2, rats 9 weeks old, CCl4 only 17704 ± 4140, normal 76 ± 4
# [12] = Table 3, serum 24 hours after CCl4, 200 mg/kg orally x2, rats 9 weeks old, CCl4 only 0.38 ± 0.06, normal 0.22 ± 0.04
# [13] = Table 3, serum 24 hours after CCl4, 200 mg/kg orally x2, rats 9 weeks old, CCl4 only 34.4 ± 2.6, normal 27.0 ± 0.5
# [14] = Table 3, serum 24 hours after CCl4, 200 mg/kg orally x2, rats 9 weeks old, CCl4 only 9188 ± 1815, normal 30 ± 2
# [15] = Table 3, serum 24 hours after CCl4, 200 mg/kg orally x2, rats 9 weeks old, CCl4 only 13189 ± 2205, normal 81 ± 3
# [16] = Table 5, 170 to 210 g, CCl4 only 27875 ± 3628, normal 78 ± 3
# [17] = Table 5, CCl4 only 0.55 ± 0.16, normal 0.10 ± 0.00
# [18] = Table 5, CCl4 only 41.3 ± 2.5, normal 25.7 ± 0.4
# [19] = Table 5, CCl4 only 12984 ± 1465, normal 30 ± 3
compound,measurement,setting,value
"CC(=O)C1=C(C)NC(C)=C(C#N)C1C1=COCCO1 (centres unmarked) [Sample Compound B, 3-acetyl-5-cyano-4-[2-(5,6-dihydro-p-dioxinyl)]-2,6-dimethyl-l,4-dihydropyridine]",GOT,[1]; [4],1604 ± 569 K.U.
same,Bilirubin,[1]; [5],0.20 ± 0.00 mg/dL
same,AlP,[1]; [6],34.1 ± 3.4 K-AU.
same,GPT,[1]; [7],1023 ± 368 K.U.
"COC(=O)C1=C(C)NC(C)=C(C#N)C1C1=COCCO1 (centres unmarked) [Sample Compound C, methyl 5-cyano-4-[2-(5,6-dihydro-p-dioxinyl)]-2,6-dimethyl-1,4-dihydropyridine-3-carboxylate]",GOT,"[1]; Table 2, serum 24 hours after CCl4, 200 mg/kg orally x2, rats 10 weeks old, 230 to 260 g, CCl4 only 20701 ± 2821, normal 89 ± 12",1447 ± 313 K.U.
same,Bilirubin,"[1]; Table 2, serum 24 hours after CCl4, 200 mg/kg orally x2, rats 10 weeks old, CCl4 only 0.40 ± 0.09, normal 0.10 ± 0.00",0.20 ± 0.00 mg/dL
same,AlP,"[1]; Table 2, serum 24 hours after CCl4, 200 mg/kg orally x2, rats 10 weeks old, CCl4 only 32.3 ± 2.8, normal 22.7 ± 0.6",31.7 ± 3.2 K-AU.
same,GPT,"[1]; Table 2, serum 24 hours after CCl4, 200 mg/kg orally x2, rats 10 weeks old, CCl4 only 11034 ± 1354, normal 41 ± 3",912 ± 198 K.U.
"COCC(C)OC(=O)C1=C(C)NC(C)=C(C(=O)OC(C)COC)C1C1=COCCO1 (centres unmarked) [Sample Compound D, bis(1-methyl-2-methoxyethyl) 4-[2-(5,6-dihydro-p-dioxinyl)]-2,6-dimethyl-l,4-dihydropyridine-3,5-dicarboxylate]",GOT,[1]; [4],2572 ± 518 K.U.
same,Bilirubin,[1]; [5],0.20 ± 0.00 mg/dL
same,AlP,[1]; [6],31.0 ± 1.5 K-AU.
same,GPT,[1]; [7],2050 ± 419 K.U.
CC1=C(C(=O)OC(C)C)C(C2=COCCO2)C(C(=O)OC(C)C)=C(C)N1 [Sample Compound G],Bilirubin,[1]; [8],0.22 ± 0.02 mg/dL
same,AlP,[1]; [9],31.5 ± 1.2 K-AU.
same,GPT,[1]; [10],2994 ± 638 K.U.
same,GOT,[1]; [11],3482 ± 707 K.U.
"C=CCOC(=O)C1=C(C)NC(C)=C(C(=O)OCC=C)C1C1=COCCO1 [Sample Compound H, diallyl 4-[2-(5,6-dihydro-p-dioxinyl)]-2,6-dimethyl-l,4-dihydropyridine-3,5-dicarboxylate]",Bilirubin,[1]; [8],0.22 ± 0.04 mg/dL
same,AlP,[1]; [9],29.5 ± 2.4 K-AU.
same,GPT,[1]; [10],1453 ± 699 K.U.
same,GOT,[1]; [11],1920 ± 881 K.U.
same,LD50 at 168 h,[2],> 1000 mg/kg
"C#CCOC(=O)C1=C(C)NC(C)=C(C(=O)OCC#C)C1C1=COCCO1 [Sample Compound I, dipropargyl 4-[2-(5,6-dihydro-p-dioxinyl)]-2,6-dimethyl-l,4-dihydropyridine-3,5-dicarboxylate]",Bilirubin,[1]; [8],0.22 ± 0.02 mg/dL
same,AlP,[1]; [9],27.6 ± 1.8 K-AU.
same,GPT,[1]; [10],2110 ± 228 K.U.
same,GOT,[1]; [11],2925 ± 380 K.U.
same,LD50 at 168 h,[2],> 2000 mg/kg
"COC(=O)C1=C(C)NC(C)=C(C(=O)OC(C)C)C1C1=COCCO1 (centres unmarked) [Sample Compound K, isopropyl methyl 4-[2-(5,6-dihydro-p-dioximyl)]-2,6-dimethyl-1,4-dihydropyridine-3,5-dicarboxylate]",Bilirubin,[1]; [8],0.24 ± 0.02 mg/dL
same,AlP,[1]; [9],29.6 ± 0.8 K-AU.
same,GPT,[1]; [10],1657 ± 436 K.U.
same,GOT,[1]; [11],2290 ± 619 K.U.
"COC(=O)C1=C(C)NC(C)=C(C(C)=O)C1C1=COCCO1 (centres unmarked) [Sample Compound M, methyl 5-acetyl-4-[2-(5,6-dihydro-p-dioxinyl)]-2,6-dimethyl-l,4-dihydropyridine-3-carboxylate]",Bilirubin,[1]; [8],0.20 ± 0.00 mg/dL
same,AlP,[1]; [9],29.1 ± 1.1 K-AU.
same,GPT,[1]; [10],428 ± 88 K.U.
same,GOT,[1]; [11],807 + 176 K.U.
"COCCOC(=O)C1=C(C)NC(C)=C(C(C)=O)C1C1=COCCO1 (centres unmarked) [Sample Compound N, 2-methoxyethyl 5-acetyl-4-[2-(5,6-dihydro-p-dioxinyl)]-2,6-dimethyl-1,4-dihydropyridine-3-carboxylate]",Bilirubin,[1]; [8],0.18 ± 0.02 mg/dL
same,AlP,[1]; [9],28.5 ± 1.7 K-AU.
same,GPT,[1]; [10],2860 ± 858 K.U.
same,GOT,[1]; [11],3430 ± 922 K.U.
"CC(=O)C1=C(C)NC(C)=C(C(C)=O)C1C1=COCCC1 [Sample Compound P, 3,5-diacetyl-4-[5-(3,4-dihydro-2H-pyranyl)]-2,6-dimethyl-1,4-dihydropyridine]",Bilirubin,[1]; [12],0.32 ± 0.02 mg/dL
same,AlP,[1]; [13],35.1 ± 1.4 K-AU.
same,GPT,[1]; [14],616 ± 193 K.U.
same,GOT,[1]; [15],899 ± 252 K.U.
"CC(=O)C1=C(C)NC(C)=C(C(C)=O)C1C1=CSCCS1 [Sample Compound Q, 3,5-diacetyl-4-[2-(5,6-dihydro-1,4-dithiinyl)]-2,6-dimethyl-1,4-dihydropyridine]",Bilirubin,[1]; [12],0.26 ± 0.02 mg/dL
same,AlP,[1]; [13],29.8 ± 1.3 K-AU.
same,GPT,[1]; [14],1891 ± 357 K.U.
same,GOT,[1]; [15],2583 ± 540 K.U.
"COCOC(=O)C1=C(C)N(COC)C(C)=C(C(=O)OCOC)C1C1=COCCO1 [Sample Compound S, bis(methoxymethyl) 4-[2-(5,6-dihydro-p-dioxinyl)]-1-methoxymethyl-2,6-dimethyl-1,4-dihydropyridine-3,5-dicarboxylate]",GOT,[3]; [16],461 ± 162 K.U.
same,Bilirubin,[3]; [17],0.10 ± 0.00 mg/dL
same,AlP,[3]; [18],26.3 ± 0.8 K-AU.
same,GPT,[3]; [19],313 ± 120 K.U.
"COC(=O)C1=C(C)NC(C)=C(C(=O)OC)C1C1=C(C)OC(C)CO1 (centres unmarked) [Sample Compound T, dimethyl 2,6-dimethyl-4-[2-(3,5-dimethyl-5,6-dihydro-p-dioxinyl)] -1,4-dihydropyridine-3,5-dicarbcxylate]",GOT,[3]; [16],5538 ± 954 K.U.
same,Bilirubin,[3]; [17],0.25 ± 0.03 mg/dL
same,AlP,[3]; [18],34.4 ± 1.7 K-AU.
same,GPT,[3]; [19],4156 ± 196 K.U.
"COCOC(=O)C1=C(C)NC(C)=C(C(=O)OCOC)C1C1=C(C)OC(C)CO1 (centres unmarked) [Sample Compound U, bis (methcxymethyl) 2,6-dimethyl-4-[2-(3,5-dimethyl-5,6-dihydro-p-dioxinyl)]-1,4-dihydropyridine-3,5-dicarboxylate]",GOT,[3]; [16],608 ± 214 K.U.
same,Bilirubin,[3]; [17],0.10 ± 0.00 mg/dL
same,AlP,[3]; [18],27.0 ± 1.0 K-AU.
same,GPT,[3]; [19],384 ± 135 K.U.
"CC(=O)C1=C(C)NC(C)=C(C(C)=O)C1C1=C(C)OCCO1 [Sample Compound W, 3,5-diacetyl-2,6-dimethyl-4-[2-(3-methyl-5,6-dihydro-p-dioxinyl)]-1,4-dihydropyridine]",Bilirubin,"[3]; Table 6, CCl4 only 0.50 ± 0.08, normal 0.12 ± 0.02",0.20 ± 0.00 mg/dL
same,AlP,"[3]; Table 6, CCl4 only 52.5 ± 2.2, normal 36.3 ± 1.6",49.5 ± 3.0 K-AU.
same,GPT,"[3]; Table 6, CCl4 only 12606 ± 1688, normal 39 ± 4",805 ± 195 K.U.
same,GOT,"[3]; Table 6, CCl4 only 23424 ± 3360, normal 79 ± 2",1194 ± 234 K.U.
